Results on six compounds are retold here after patent US6413974B1, “6,9,-disubstituted 2-[trans-(4-aminocyclohexyl) amino] purines” (Aventis Pharmaceuticals Inc., priority 1998, dated 2002).

“And” between values parts separate entries of the source, which are not always exact repeats. Identical values can stand only once. Counter-ions that a name gives are not always drawn. Like-named read-outs stand apart in the source and are kept apart here.

One assay addresses T1, cdk2/cyclin E (Homo sapiens, UniProt P24941).
T1 construct: made in house; host or cells: insect cells (baculovirus co-infection)
In words: Cyclin-Dependent Kinase 2 Assay (cdk-2 inhibition). Type of assay: biochemical. As to conditions: GST-Rb substrate, 30 min at 30° C. The method, boiled down:
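GST-Rb bound to glutathione-Sepharose beads (0.5 μg/well) as substrate in 50 mM HEPES pH 7.5, 10 mM MgCl2, 1 mM EGTA. Recombinant cdk2/cyclin E at 0.1 μg per 100 μl, 30 min at 30 °C. Reaction stopped by filtration, TNEN washes, scintillation counting.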

The target in another assay is T2, cdk4/cyclin D1 (Homo sapiens, UniProt P11802).
T2 construct: made in house; host or cells: Sf9 insect cells (Bac-to-Bac baculovirus, pFastBac)
T2 sequence (P11802 whole entry): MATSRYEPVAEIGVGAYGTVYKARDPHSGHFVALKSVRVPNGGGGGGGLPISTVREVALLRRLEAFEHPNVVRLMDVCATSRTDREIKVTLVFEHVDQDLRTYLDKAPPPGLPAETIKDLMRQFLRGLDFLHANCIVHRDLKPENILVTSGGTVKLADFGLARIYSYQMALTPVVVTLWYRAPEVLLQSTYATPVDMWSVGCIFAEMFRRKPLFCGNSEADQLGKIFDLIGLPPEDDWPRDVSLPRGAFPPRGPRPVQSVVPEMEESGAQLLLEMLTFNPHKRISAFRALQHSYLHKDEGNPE
T2 sequence (P24385 whole entry partner): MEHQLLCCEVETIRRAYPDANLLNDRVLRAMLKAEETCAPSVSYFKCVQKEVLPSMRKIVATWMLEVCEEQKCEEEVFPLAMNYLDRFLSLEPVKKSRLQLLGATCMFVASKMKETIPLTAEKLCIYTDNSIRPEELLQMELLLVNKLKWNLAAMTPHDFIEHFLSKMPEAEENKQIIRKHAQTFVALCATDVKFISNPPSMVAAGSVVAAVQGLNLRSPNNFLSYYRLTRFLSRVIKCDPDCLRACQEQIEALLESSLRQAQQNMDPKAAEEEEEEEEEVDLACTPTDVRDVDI
In words: Cyclin-dependent kinase 4 Assay. Type of assay: biochemical. The conditions noted are these: cdk4/cyclin D1, GST-Rb substrate, 10 μM ATP, 30 min at 37° C.; read-out: CDK4 Inhibition IC50. An outline of the steps: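 Insect-cell lysate of coexpressed human cdk4/cyclin D1 (0.1 μg) phosphorylated bead-bound GST-Rb (0.5 μg) in 50 mM HEPES pH 7.5, 10 mM MgCl2, 1 mM EGTA for 30 min at 37 °C. Filters were washed with TNEN and scintillation-counted; IC50 values derived.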

The test system of a further assay is MDA-MB-231. As to the kind of experiment: In vitro tumor cell proliferation, MDA-MB-231. The format is cell-based, human. As to conditions: read-out: In vitro Tumor Cell Proliferation (IC50, μM) Breast MDA-MB-231. The method, boiled down: (§1)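 Viable (trypan blue-excluding) cells plated and left overnight at 37° C, then exposed to drug for 3 days, refed with fresh drug-containing medium for 4 more days. TCA-fixed cells stained with 0.4% sulforhodamine B; alternatively, CyQUANT read after 3 days of drug and freezing at −80° C.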

Another assay deals with MDA-MB-435. In words: In vitro tumor cell proliferation, MDA-MB-435. The conditions noted are these: read-out: In vitro Tumor Cell Proliferation (IC50, μM) Breast MDA-MB-435. The format is cell-based, human. An outline of the steps: as §1
The next assay deals with HT-29. In words: In vitro tumor cell proliferation, HT-29. The format is cell-based, human. As to conditions: read-out: In vitro Tumor Cell Proliferation (IC50, μM) Colon HT-29 (converted). An outline of the steps:
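HT-29 human colon adenocarcinoma cells plated overnight at 37° C., then exposed to drug for 3 days, medium with fresh drug replaced for a further 4 days. Cells fixed with 10% TCA and stained with 0.4% sulforhodamine B; alternatively, CyQUANT read after 3 days of drug exposure.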

The next assay deals with Colo-205. As to the kind of experiment: In vitro tumor cell proliferation, Colo-205. The format is cell-based, human. As to conditions: read-out: In vitro Tumor Cell Proliferation (IC50, μM) Colon Colo-205. The method, boiled down:
as §1

The subject of the next assay is A549. In words: In vitro tumor cell proliferation, A549. Type of assay: cell-based, human. As to conditions: read-out: In vitro Tumor Cell Proliferation (IC50, μM) Lung A549. The method, boiled down: as §1
For another assay, the system named is DMS-114. As to the kind of experiment: In vitro tumor cell proliferation, DMS-114. The conditions noted are these: read-out: In vitro Tumor Cell Proliferation (IC50, μM) Lung DMS-114. The format is cell-based, human. The method, boiled down: as §1
The subject of another assay is PC-3. In words: In vitro tumor cell proliferation, PC-3. The format is cell-based, human. The conditions noted are these: read-out: In vitro Tumor Cell Proliferation (IC50, μM) Prostate PC-3. An outline of the steps: as §1
The next assay relates to DU 145. As to the kind of experiment: In vitro tumor cell proliferation, DU 145. Type of assay: cell-based, human. The conditions noted are these: read-out: In vitro Tumor Cell Proliferation (IC50, μM) Prostate DUI45. An outline of the steps: as §1
Setting [1] is: Homo sapiens, MDA-MB-231, values marked * (mark not explained).
The mark [2] stands for this setting: values marked * (mark not explained), dihydrochloride.
[3] abbreviates: Homo sapiens, MDA-MB-435, values marked * (mark not explained).
The mark [4] stands for this setting: Homo sapiens, HT-29, values marked * (mark not explained).
Where [5] appears, read: Homo sapiens, COLO 205, values marked * (mark not explained).
[6] abbreviates: Homo sapiens, A549, values marked * (mark not explained).
Setting [7] is: Homo sapiens, DMS-114, values marked * (mark not explained).
The mark [8] stands for this setting: Homo sapiens, PC-3, values marked * (mark not explained).
The mark [9] stands for this setting: Homo sapiens, DU-145, values marked * (mark not explained).

With `N[C@H]1CC[C@H](Nc2nc(NCCc3ccc(O)cc3)c3ncn(C4CCCC4)c3n2)CC1` [Example 55, 2-[Trans-(4-aminocyclohexyl)amino]-6-[(4-hydroxyphenyl)ethylamino]-9-cyclopentylpurine. dihydrochloride], the IC50 at cdk2/cyclin E is 89 nM; on cdk4/cyclin D1, 2100 nM and 1100 nM and 700 nM; with MDA-MB-231 (setting [1]), 5.2 µM; with MDA-MB-231 (setting [2]) it was 5.6 µM; with MDA-MB-435 (setting [3]), 6.7 µM; in the assay on MDA-MB-435 (setting [2]), 7.2 µM. Further, the IC50 was 7 µM with HT-29 (setting [4]); 6.1 µM in the assay with HT-29 (setting [2]); 4.3 µM in the assay with Colo-205 (setting [5]); 4.2 µM with Colo-205 (setting [2]); 7.3 µM with A549 (setting [6]); 6.4 µM with A549 (setting [2]). The IC50 in the assay on DMS-114 (setting [7]) amounted to 7 µM; in the assay with DMS-114 (setting [2]), 4.8 µM; with PC-3 (setting [8]) it was 4.2 µM; in the assay with PC-3 (setting [2]), 4 µM; with DU 145 (setting [9]), 6.7 µM; in the assay with DU 145 (setting [2]), 7.2 µM.

`CCCCCCCCNc1nc(N[C@H]2CC[C@H](N)CC2)nc2c1ncn2C1CCCC1` [Example 20, 2-[Trans-(4-aminocyclohexyl)amino]-6-(octylamino)-9-cyclopentylpurine dihydrochloride]: the IC50 is 330 nM and 310 nM and 460 nM at cdk2/cyclin E; 2400 nM on cdk4/cyclin D1; 2.7 µM in the assay on MDA-MB-231 (setting [1]); 1.9 µM in the assay with MDA-MB-231 (setting [2]); 2.3 µM in the assay on MDA-MB-435 (setting [3]); 1.8 µM in the assay with MDA-MB-435 (setting [2]). In addition, the IC50 is 1.9 µM with HT-29 (setting [4]); 1.7 µM in the assay on HT-29 (setting [2]); 1.9 µM with Colo-205 (setting [5]); 1.4 µM with Colo-205 (setting [2]); 1.7 µM in the assay on A549 (setting [6]); 1 µM in the assay on A549 (setting [2]). The IC50 came to 1.1 µM in the assay with DMS-114 (setting [7]); 0.95 µM in the assay on DMS-114 (setting [2]); 1.7 µM in the assay on PC-3 (setting [8]); 1.8 µM in the assay on PC-3 (setting [2]); 2.4 µM in the assay on DU 145 (setting [9]); 1.9 µM in the assay with DU 145 (setting [2]).

Regarding `N[C@H]1CC[C@H](Nc2nc(NCc3cccs3)c3ncn(C4CCCC4)c3n2)CC1` [Example 17, 2-[Trans-(4-aminocyclohexyl)amino]-6-(2-thiophenemethylamino)-9-cyclopentylpurine dihydrochloride], the IC50 on cdk2/cyclin E was 69 nM and 46 nM; on cdk4/cyclin D1 it was 300 nM and 500 nM; with MDA-MB-231 (setting [1]), 2.4 µM; with MDA-MB-231 (setting [2]), 3 µM; in the assay with MDA-MB-435 (setting [3]) it was 3.2 µM; with MDA-MB-435 (setting [2]), 3.7 µM. The IC50 was 2.4 µM in the assay with HT-29 (setting [4]); 2.6 µM with HT-29 (setting [2]); 2.2 µM in the assay on Colo-205 (setting [5]); 3 µM in the assay with Colo-205 (setting [2]); 1.8 µM with A549 (setting [6]); 1.6 µM in the assay with A549 (setting [2]). Further, the IC50 in the assay with DMS-114 (setting [7]) is 1.9 µM; in the assay with DMS-114 (setting [2]) it was 1.7 µM; in the assay with PC-3 (setting [8]) it was 1.7 µM; with DU 145 (setting [9]), 1.6 µM.

On to `N[C@H]1CC[C@H](Nc2nc(NCc3ccncc3)c3ncn(C4CCCC4)c3n2)CC1` [Example 8, 2-[Trans-(4-aminocyclohexyl)amino]-6-[(4-pyridyl)methylamino]-9-cyclopentylpurine dihydrochloride], for which the IC50 against cdk2/cyclin E was 110 nM; on cdk4/cyclin D1 it was 700 nM and 800 nM; in the assay with MDA-MB-231 (setting [1]), 5.3 µM; in the assay on MDA-MB-231 (setting [2]), 8.1 µM; in the assay on MDA-MB-435 (setting [3]), 10 µM; in the assay on HT-29 (setting [4]) it was 7.6 µM. Also, the IC50 with HT-29 (setting [2]) is 11 µM; with Colo-205 (setting [5]) it was 4.6 µM; with Colo-205 (setting [2]) it was 4.1 µM; with A549 (setting [6]) it was 7.7 µM; in the assay with A549 (setting [2]), 5.9 µM; with DMS-114 (setting [7]) it was 9.9 µM. Also, the IC50 with DMS-114 (setting [2]) came to 7.4 µM; in the assay on PC-3 (setting [8]), 4.6 µM; in the assay with PC-3 (setting [2]) it was 5.4 µM; in the assay with DU 145 (setting [9]) it was 5.8 µM; in the assay on DU 145 (setting [2]), 6.5 µM.

As to `CC(CCCC(C)(C)O)Nc1nc(N[C@H]2CC[C@H](N)CC2)nc2c1ncn2C1CCCC1` (relative stereo) [Example 54, 2-[Trans-(4-aminocyclohexyl)amino]-6-[(5-hydroxy-1,5-dimethylhexyl)amino]-9-cyclopentylpurine dihydrochloride], the IC50 was 85 nM against cdk2/cyclin E; 2000 nM and 1200 nM at cdk4/cyclin D1; 1 µM in the assay on MDA-MB-231 (setting [1]); 1.6 µM in the assay with MDA-MB-435 (setting [3]); 1 µM in the assay with HT-29 (setting [4]); 0.63 µM in the assay with Colo-205 (setting [5]). For the same compound, the IC50 amounted to 0.58 µM with Colo-205 (setting [2]); 0.68 µM with A549 (setting [6]); 0.63 µM with A549 (setting [2]); 0.78 µM in the assay on DMS-114 (setting [7]); 0.61 µM in the assay with DMS-114 (setting [2]); 0.83 µM in the assay on PC-3 (setting [8]). The IC50 with PC-3 (setting [2]) came to 0.8 µM; in the assay with DU 145 (setting [9]) it was 1.4 µM.

`N[C@H]1CC[C@H](Nc2nc(NNCCc3ccccc3)c3ncn(C4CCCC4)c3n2)CC1` [Example 35, 2-[Trans-(4-aminocyclohexyl)amino]-6-[2-phenethylhydrazino]-9-cyclopentylpurine dihydrochloride]: the IC50 on cdk2/cyclin E was 253 nM; at cdk4/cyclin D1, 2200 nM and 1600 nM; in the assay on MDA-MB-231 (setting [1]) it was 4.2 µM; with MDA-MB-231 (setting [2]), 5.6 µM; with MDA-MB-435 (setting [3]), 9.5 µM; in the assay on MDA-MB-435 (setting [2]) it was 8 µM. Besides, the IC50 was 5.6 µM in the assay on HT-29 (setting [4]); 5.4 µM with HT-29 (setting [2]); 3.4 µM in the assay on Colo-205 (setting [5]); 3.2 µM in the assay on Colo-205 (setting [2]); 2.7 µM in the assay on A549 (setting [6]); 2.5 µM with A549 (setting [2]). Besides, the IC50 worked out at 3 µM with DMS-114 (setting [7]); 2.7 µM in the assay with DMS-114 (setting [2]); 3 µM with PC-3 (setting [8]); 4.4 µM in the assay on PC-3 (setting [2]); 3.7 µM in the assay on DU 145 (setting [9]); 3.2 µM in the assay on DU 145 (setting [2]).
